Data as given in ChEMBL document CHEMBL1156429 (J Biol Chem, 2007).
Structures can show the parent of a compound that is named as a salt. Calls of active or inactive are those of the source. The calls are words filed in the database; no cut-off is given here.

How the values were obtained:
[1] = Inhibition of formation of erythroid burst-forming units in human polycythemia vera cells at 1 uM; settings: read-out: INH
Homo sapiens = species on record: Homo sapiens; assay: Growth inhibition of normal human hematopoietic progenitor cells by colony forming assay; format: functional
[2] = Growth inhibition of JAK2 V617F mutant expressing hematopoietic progenitor cells isolated from polycythemia vera patient by colony forming assay; format: functional, cell-based; settings: Homo sapiens
Polycythemia vera [3] = assay: Growth inhibition of JAK2 V617F mutant expressing human polycythemia vera hematopoietic progenitor cells at 5 uM by erythroid burst-forming unit assay; format: functional, cell-based
Polycythemia vera [4] = assay: Growth inhibition of JAK2 V617F mutant deficient human polycythemia vera hematopoietic progenitor cells at 5 uM by erythroid burst-forming unit assay; format: functional, cell-based
[5] = Growth inhibition of JAK2 V617F mutant expressing human erythroleukemia cells after 24 hrs; format: functional, cell-based; settings: Leukemia cell
[6] = Growth inhibition of mouse erythroleukemia cells after 24 hrs; format: functional, cell-based; settings: Leukemia cell
Jurkat = assay: Growth inhibition of human Jurkat cells after 24 hrs; format: functional, cell-based

Row | SMILES | inhibition at 1 µM [1] [%] | Activity (Homo sapiens) | IC50 [2] [nM] | Activity (Polycythemia vera [3]) | Activity (Polycythemia vera [4]) | IC50 [5] [nM] | IC50 [6] [nM] | IC50 (Jurkat) [nM]
1 | Cc1ccc(NC(=O)c2ccc(CN3CCN(C)CC3)cc2)cc1Nc1nccc(-c2cccnc2)n1 [IMATINIB MESYLATE] | 73 | – | – | – | – | – | – | –
2 | C#Cc1cccc(Nc2ncnc3cc(OCCOC)c(OCCOC)cc23)c1 [ERLOTINIB] | – | inactive | 5000 | Active | inactive | 2000 | 2000 | 2000
